{"source": "patent US20190125753A1", "about": "“COMPOUNDS AND METHODS FOR INCREASING HEMATOPOIESIS” (University of Southern California, priority 2016, published 2019)", "key": {"[1]": {"tested_on": "bone marrow HSPC", "experiment": "Multiple administration, competitive repopulation assay", "assay_type": "in vivo, mouse", "protocol": "The golden standard to determine HSPC number and activity is a competitive repopulation assay. The testing cells and competitor cells are mixed and transplanted to recipients to create an environment the testing cells compete with competitor cells to repopulate the recipients' hematopoietic system. The quantitative engraftment level reflects the testing cell stem/progenitor cell number.\nIn this study, donor mice (CD45.2) were treated with YH250 or DMSO every 48 hs for 4 round, then, bone marrow cells from the treated mice were recovered and mixed with competitive cells from non-treated normal mice for BMT to lethally irradiated recipients (FIG. 16A). Blood were collected periodically from recipient mice to determine HSPC activities."}, "[2]": {"tested_on": "bone marrow stem/progenitor cells", "experiment": "HSPC proliferation in 5-FU treated animals", "assay_type": "in vivo, mouse", "details": "5-FU 150 mg/kg, YH250 2 mg/kg 24 hours later, analysed one day later", "protocol": "p300/-catenin antagonists, such as YH250, were also tested for the ability to stimulate bone marrow stem/progenitor cell proliferation in chemotherapeutic drug-treated (e.g., 5-FU) animals. As depicted in FIG. 24A, animals were given PBS or 5-FU (150 mg/kg). 24 hours later, either DMSO or YH250 (2 mg/kg) were administrated to animals. Then, bone marrow cells were isolated one day later for FACS analysis."}, "[3]": {"tested_on": "mouse bone marrow cells", "experiment": "CFU-S12 assay (treated cells injected to lethally irradiated mice)", "assay_type": "in vivo", "details": "cells treated in vitro, 12 days after injection", "source_text": "In CFU-S12 assay, cells treated with DMSO or YH250 were recovered from plate and injected to lethally irradiated mice (FIG. 8A), 12 days later, animals were euthanized to check spleen colony formation and spleen weight."}, "[4]": {"tested_on": "cord blood CD34+ cells", "experiment": "Cord blood CD34+ cell culture, colony morphology at day 8", "assay_type": "cell-based, human", "details": "4GF medium, day 8 in culture", "protocol": "Cord blood CD34^+ cells were cultured in serum free medium with different growth factor combination and different concentrations of YH250. We tested three serum free mediums with either 4 growth factors (4GF, or SF6T: SCF 100 ng/ml; Flt3 100 ng/ml, IL-6 20 ng/ml, and TPO 20 ng/ml) or 6 growth factors (6GF, or SF6TG3: SCF 100 ng/ml; Flt3 100 ng/ml, IL-6 20 ng/ml, TPO 20 ng/ml, GCSF 10 ng/ml, and IL-3 10 ng/ml). YH250 was at 0.3 μM or 1 μM concentration, DMSO, the solvent for YH250, was used as control. Frozen cord blood CD34+ cells were plated into 96 wells with different medium and different growth factors and different compound concentrations. At day 8 in culture, pictures were taken to record the cell growth and colony morphology (FIG. 12A)."}, "[5]": {"tested_on": "5-FU treated mice", "experiment": "Recovery from repeated 5-FU administration", "assay_type": "in vivo, mouse", "protocol": "To test if p300/-catenin antagonists can also promote multi-dosing chemotherapeutic drug induced bone marrow inhibition, 4 rounds of 5-FU (two doses in each round) administration were given to CD45.2 female mice. 150 mg/kg of 5-FU was given to mice for the first three rounds and then 200 mg/kg for the last round (4th round). The second dose of 5-FU was 6 days apart from the first dose of 5-FU in each round. Either DMSO or YH250 (2 mg/kg) were given to animals 24 hours after the first dose of 5-FU in each round of 5-FU administration (FIG. 25A). Animal body weight, survival rate and blood count changes were monitored. […] After each round of 5-FU administration, animals were allowed to recover to normal blood count before next round of 5-FU administration. FIG. 25E depicts the blood count at nadir points after each round of 5-FU administration."}, "[6]": {"tested_on": "bone marrow HSPC", "experiment": "Competitive repopulation assay after 8.5Gy radiation (HSPC exhaustion)", "assay_type": "in vivo"}, "[7]": {"tested_on": "cord blood CD34+ cells", "experiment": "Cord blood CD34+ cell culture 7 days, FACS surface marker analysis", "assay_type": "cell-based, human", "details": "7th day", "protocol": "A method to analyze expanded cord blood CD34+ cell phenotype using FACS is established. In this study, cord blood cells were cultured in vitro with 4GF and different concentrations of p300/-catenin antagonist such as YH250. Because the limited CD34+ cells in culture system, GFP transgenic mouse bone marrow cells were isolated and added to the cells as carrier cells in FACS analysis. The bright GFP positive carrier cells were gated out and the targeting cord blood cells were further analyzed for their surface marker. FIG. 13A depicts carrier cell only in FACS analysis.\nCord blood CD34+ cells were cultured in medium containing either 4GF or 6GF with different concentration of p300/-catenin antagonist YH250. At 7th day in culture, cells were recovered and mixed with carrier cells from GFP mice bone marrow. Antibodies to human HSC surface protein are added to the cells and human CD45posit cells were gated for FACS analysis. […] In 6GF medium, 10 μM of YH250 also gives more human CD45+CD34+ cells compared with DMSO (73.3% vs 66.2%, Table 5)."}, "[8]": {"details": "especially last three rounds of 5-FU"}}, "data": [{"smiles": "COc1cccc(CNC(=O)N2C3CN(Cc4cc(Cl)cc(Cl)c4N(C)C)C(=O)[C@H](Cc4ccc(O)cc4)N3C(=O)CN2C)c1OC", "note": "(stereo partly drawn) [YH250]", "values": [{"measurement": "BrdU positive cells in HSPC compartment", "setting": "[1]; LSK34negt135neg, LSK34neg135neg48negt150posit, LSK34posit135negt cells", "result": "more BrdU positive cells"}, {"measurement": "engraftment level at day 140 and 164 vs day 40 after BMT", "setting": "[1]; donors treated every 48 hs for 4 round, p<0.01, n=5/group", "result": "significantly increased"}, {"measurement": "engraftment level vs DMSO treated cells", "setting": "[1]; no statistical significance (n=5)", "result": "higher than DMSO treated cells"}, {"measurement": "Lin-CD48-CD150+ cell numbers vs DMSO", "setting": "[2]", "result": "significantly higher"}, {"measurement": "lineage negative cell numbers vs DMSO", "setting": "[2]", "result": "significantly higher"}, {"measurement": "spleen colonies (CFU-S12)", "setting": "[3]", "result": "larger colonies on spleen"}, {"measurement": "spleen weight (CFU-S12)", "setting": "[3]", "result": "heavier spleen"}, {"measurement": "colony morphology", "setting": "[4]", "result": "more close to “stem cell colony” morphology"}, {"measurement": "RBC at nadir points", "setting": "[5]; 4 rounds of 5-FU", "result": "no significant effect on RBC"}, {"measurement": "survival", "setting": "[5]; 5-FU 200 mg/kg (4th round), 60% died in DMSO group, p=0.04", "result": "all animals survived"}, {"measurement": "WBC at nadir point", "setting": "[5]; [8]", "result": "significantly higher"}, {"measurement": "platelet at nadir point", "setting": "[5]; [8]", "result": "significantly higher"}, {"measurement": "body weight", "setting": "[5]; from second round of 5-FU administration, 2 mg/kg each round", "result": "less weight drop"}, {"measurement": "engraftment level vs DMSO treated animals", "setting": "[6]; bone marrow from 8.5Gy irradiated animals", "result": "similar"}, {"measurement": "HSPC exhaustion", "setting": "[6]; one dose 24 hours post lethal dose radiation", "result": "does not exhaust HSPC"}, {"measurement": "%34 + 38-45RA-33-", "setting": "[7]; 4GF (SF6T), 1 μM, DMSO 3.9", "result": 3.5, "unit": "%"}, {"measurement": "%33-45RA-", "setting": "[7]; 4GF (SF6T), 1 μM, DMSO 4.5", "result": 5.0, "unit": "%"}, {"measurement": "% CD3+", "setting": "[7]; 4GF (SF6T), 1 μM, DMSO 12.2", "result": 16.0, "unit": "%"}, {"measurement": "%34 + 38-", "setting": "[7]; 4GF (SF6T), 1 μM, DMSO 64.5", "result": 51.7, "unit": "%"}, {"measurement": "%34+", "setting": "[7]; 4GF (SF6T), 1 μM, DMSO 79.1", "result": 64.1, "unit": "%"}, {"measurement": "%33-45RA-", "setting": "[7]; 4GF (SF6T), 3 μM", "result": 5.8, "unit": "%"}, {"measurement": "%34+", "setting": "[7]; 4GF (SF6T), 3 μM", "result": 84, "unit": "%"}, {"measurement": "%34 + 38-", "setting": "[7]; 4GF (SF6T), 3 μM", "result": 65.5, "unit": "%"}, {"measurement": "%34 + 38-45RA-33-", "setting": "[7]; 4GF (SF6T), 3 μM", "result": 5.2, "unit": "%"}, {"measurement": "% CD3+", "setting": "[7]; 4GF (SF6T), 3 μM", "result": 9.5, "unit": "%"}, {"measurement": "%33-45RA-", "setting": "[7]; 4GF (SF6T), 10 μM", "result": 4.9, "unit": "%"}, {"measurement": "%34+", "setting": "[7]; 4GF (SF6T), 10 μM", "result": 89.1, "unit": "%"}, {"measurement": "%34 + 38-", "setting": "[7]; 4GF (SF6T), 10 μM", "result": 65.3, "unit": "%"}, {"measurement": "%34 + 38-45RA-33-", "setting": "[7]; 4GF (SF6T), 10 μM", "result": 4.5, "unit": "%"}, {"measurement": "% CD3+", "setting": "[7]; 4GF (SF6T), 10 μM", "result": 4.5, "unit": "%"}, {"measurement": "%34 + 38-45RA-33-", "setting": "[7]; 6GF (SF6T3G), 1 μM, DMSO 2.3", "result": 4.4, "unit": "%"}, {"measurement": "%33-45RA-", "setting": "[7]; 6GF (SF6T3G), 1 μM, DMSO 2.5", "result": 5.8, "unit": "%"}, {"measurement": "% CD3+", "setting": "[7]; 6GF (SF6T3G), 1 μM, DMSO 22.6", "result": 20.1, "unit": "%"}, {"measurement": "%34 + 38-", "setting": "[7]; 6GF (SF6T3G), 1 μM, DMSO 56.4", "result": 53.9, "unit": "%"}, {"measurement": "%34+", "setting": "[7]; 6GF (SF6T3G), 1 μM, DMSO 66.2", "result": 62, "unit": "%"}, {"measurement": "%33-45RA-", "setting": "[7]; 6GF (SF6T3G), 3 μM", "result": 5.6, "unit": "%"}, {"measurement": "%34+", "setting": "[7]; 6GF (SF6T3G), 3 μM", "result": 66.1, "unit": "%"}, {"measurement": "%34 + 38-", "setting": "[7]; 6GF (SF6T3G), 3 μM", "result": 55.8, "unit": "%"}, {"measurement": "%34 + 38-45RA-33-", "setting": "[7]; 6GF (SF6T3G), 3 μM", "result": 4.2, "unit": "%"}, {"measurement": "% CD3+", "setting": "[7]; 6GF (SF6T3G), 3 μM", "result": 18.8, "unit": "%"}, {"measurement": "%33-45RA-", "setting": "[7]; 6GF (SF6T3G), 10 μM", "result": 6.1, "unit": "%"}, {"measurement": "%34+", "setting": "[7]; 6GF (SF6T3G), 10 μM", "result": 73.3, "unit": "%"}, {"measurement": "%34 + 38-", "setting": "[7]; 6GF (SF6T3G), 10 μM", "result": 57.9, "unit": "%"}, {"measurement": "%34 + 38-45RA-33-", "setting": "[7]; 6GF (SF6T3G), 10 μM", "result": 4.2, "unit": "%"}, {"measurement": "% CD3+", "setting": "[7]; 6GF (SF6T3G), 10 μM", "result": 13.8, "unit": "%"}]}]}
